Results: PMC10108821, “Three tyrosine kinase inhibitors cause cardiotoxicity by inducing endoplasmic reticulum stress and inflammation in cardiomyocytes” (BMC Medicine, 2023)

Legend:
NRCMs [1] = test system: NRCMs
Method: After treatment, cells were stained with 5 μg/mL Propidium iodide (Sigma-Aldrich) mixed with Hoechst33342 (Solarbio) in Phenol red-free DMEM (Procell) in a 5% CO2 incubator at 37°C for 30 minutes. Images of PI staining were acquired through the filter Ex/Em=555/624nm and of the nuclei staining through the filter Ex/Em=405/452 using ImageXpress Micro Confocal-AWES (Molecular Devices).

NRCMs [2] = experiment: qRT-PCR of fetal, pro-inflammatory and ER stress genes with pathway-selective inhibitors; format: cell-based, rat; settings: 24 h
Method: (§1) Rats were euthanized by decapitation and thoracic cavity was opened with scissors and hearts were popped out of the opening gently with fingers. Hearts were clipped and put in HBSS immediately; 20–40 hearts were collected into one sterile vial containing a magnetic stir bar and 1 mL digestive media made of 0.1% trypsin (Macklin) and 0.05% collagenase (Gibco) in HBSS. Hearts were minced until they were uniform in size. Digestive media was added to 10 mL for 40 hearts and stirred gently for 6 min. Supernatant was discarded and the digestion was repeated once; 10 mL digestive media was added and stirred gently for 10 min. The supernatant with cells were collected and the digestion and collection were repeated 4 times. Cells were centrifuged at 1200 rpm for 5 min, resuspended in media (Dulbecco’s modified Eagleʼs medium (Gibco)) with 10% fetal bovine serum (FBS; VISTECH), 1% penicillin–streptomycin, and 1% 0.1 M 5-bromo-2-deoxyuridine solution (Shanghai Yuanye) and filtered through a 40-μm cell strainer. Cells were seeded on a 100-mm plastic dish and cultured in a 5% CO2 incubator at 37 °C for 2 h to allow non-myocytes to adhere to the plate. The dish was swirled and media gently pipetted up and down to detach lightly attached cardiomyocytes. The collected myocytes were seeded in the same media described before; 48 h after plating, medium was exchanged to fresh DMEM (Gibco) with or without 2% FBS. All drug treatments were performed after this media change.
(§2) RNA was isolated based on a standard protocol using TRIzol reagent (Vazyme). TRIzol (1ml per 1 well of a 6-well plate) was used to lyse cells and chloroform was added for RNA separation. Samples were shaked vigorously by hand for 15 seconds and incubated at room temperature for 2-3 minutes. RNA was present in the aqueous phase after centrifuge at 12000 x g for 15 minutes. Isopropyl alcohol was mixed to precipitate RNA from the aqueous phase. RNA precipitations were washed with 75% ethanol once and re-dissolved in RNase-free water. 1 μg total RNA was used for cDNA synthesis using a reverse transcription kit (Bioman). We then measured expression of genes of interest with SYBRR Green qPCR Mix (Bioman) using Applied Biosystems 7500 Quantitative PCR Instrument. Gene expression was normalized to the 18S ribosomal RNA expression and primers were listed in Primers Table.

H9C2 cell line = experiment: qRT-PCR of inflammatory genes in H9C2 cells; format: cell-based, rat; settings: ISRIB 200 nM or salubrinal 20 μM with 3 TKIs, 24-hr
Method: as §2
H9C2 cells were a gift from Dr. Rong Qi in Peking University Health Science Center (they were originally purchased from the Cell Bank/Stem cell bank, Chinese Academy of Science). […] Media was changed to DMEM (Gibco) containing 2% FBS 12 hours before treatment. All treatments were performed under DMEM containing 2% FBS.

Cor.4U hiPSC-CMs [3] = experiment: ATP level (CellTiter-Glo) in hiPSC-CMs; format: cell-based, human
Method: ATP content was measured using the CellTiter-Glo Luminescent Cell Viability Assay (Promega) following the manufacturer’s protocol. After adding CellTiter-Glo reagents and incubation, luminescence was quantified using a Synergy H1 plate reader (BioTek Instruments). ATP standards were prepared from 0.01 to 5 μM. For each drug, we fitted a four-parameter log-logistic model to calculate ED50 at day 5 (Fig S1). To rank the cellular toxicity of the eight TKIs (Fig 1T), we calculated (EC50-Cmax)/(EC50+Cmax) and arranged from the smallest to the biggest for increasing cellular toxicity.

HELP hiPSC-CMs = experiment: CardioExcyte 96 microelectrode array: base impedance and extracellular field potential; format: cell-based, human; settings: fixed doses: 10 µM, crizotinib and ponatinib 3.16 µM; up to 24 h
Method: HELP hiPSC-CMs were seeded evenly into the 96-well microelectrode array, NSP-96 0.6mm sensor plate (Nanion technologies), at 50,000 cells per well. Measurements were started after 3-5 days of culture of these cells and until the impedance and the extracellular field potential are stable. Measurements were taken a few times before drug addition, and every 30~60 minutes after the drugs were added at 2x concentration. Values were averaged from 3 wells per group. Beat rate, amplitude of impedance, base impedance and FPDc were calculated by the Cardio Excyte Control 96 software package (Nanion Technologies).

NRCMs [4] = experiment: Seahorse assay: oxygen consumption and extracellular acidification; format: cell-based, rat; settings: 24 h; fixed doses: 10 µM, crizotinib and ponatinib 3.16 µM
Method: as §1
NRCMs were seeded evenly into the Seahorse XF96 cell culture plates (Agilent) and cultured in DMEM high glucose with 2% FBS. About 2 hours before the test, cells were moved to a non-CO2 incubator at 37 ° C and incubated for 1 hour. 1 hour prior to the test, culture media was replaced with the Seahorse Basal DMEM at 37°C (with appropriate concentration of glucose, 4mM L-glutamine, 1 mM sodium pyruvate and 1% penicillin-streptomycin solution) and incubated in a non-CO2 incubator at 37°C for 1 hour. Drugs were prepared at 8x to 10x concentrations with the corresponding seahorse media as in each well and added into ports of Seahorse XF96 cartridge plates which have been hydrated overnight. XFe96 Extracellular Flux Analyzer (Agilent) was used to measure oxygen consumption rate and extracellular acidification rate of cells with different drug treatments.

NRCMs [5] = experiment: Mitochondrial membrane potential by TMRE staining; format: cell-based, rat; settings: 24 h of treatment
ER stress genes in NRCMs = experiment: qRT-PCR of ER stress genes in NRCMs; format: cell-based, rat
Method: as §1, with “The collected myocytes were seeded in the same media described before; 48 h after plating, medium was exchanged to fresh DMEM (Gibco) with or without 2% FBS.” left out
as §2, with “RNA precipitations were washed with 75% ethanol once and re-dissolved in RNase-free water.” left out

[6] = test system: Phospho-eIF2α, XBP1s, ATF6 (cleaved); experiment: Western blot of ER stress effectors in NRCMs; format: cell-based, rat
rat left ventricles = experiment: Rat gavage cardiotoxicity model: qRT-PCR in left ventricles; format: in vivo
NRCMs [7] = experiment: Calcium staining with Calbryte 520 AM; format: cell-based, rat; settings: 0.5 and 1 h; 10 µM afatinib, 10 µM sorafenib, 5.62 µM ponatinib
patients = settings: cited from earlier work
Cor.4U hiPSC-CMs [8] = experiment: 3'DGE-UMI RNAseq transcriptome of hiPSC-CMs
Sprague-Dawley rats = experiment: Rat gavage cardiotoxicity model: survival, heart and body weight
[9] = FDA adverse event reporting system (FAERS) analysis, reporting odds ratios; settings: July 2014 to December 2020
[10] = high PC1 loadings, ponatinib at high dose

With O=C(COc1ccc(Cl)cc1)NC1CCC(NC(=O)COc2ccc(Cl)cc2)CC1 (centres unmarked) [ISRIB] the “rescue from cell death induced by sorafenib” value (NRCMs [1]; ISRIB 200 nM or 4μ8c 10 μM with 10 µM sorafenib, 24-hr) was “had no such effect”, the “expression of Txnip, Il1b, Tnf, Nfkb1 and Il6 induced by TKIs” value (NRCMs [2]; ISRIB 200 nM co-treatment) was “inhibited the expression of Txnip, Il1b, and Tnf to similar degrees as 4μ8c, but did not hamper the expression of Nfkb1 and Il6 as potently as 4μ8c in combination with ponatinib” and the “expression of cardiac fetal genes induced by TKIs” value (NRCMs [2]; ISRIB 200 nM co-treatment) was “inhibited the expression of cardiac fetal genes to a similar level as 4μ8c”. For the same compound, the “effect on Atf4, Ddit3, Xbp1s and Dnajb9 expression induced by TKIs” value (NRCMs [2]; ISRIB 200 nM or 4μ8c 10 μM with TKIs) was “inhibited Atf4 and Ddit3 significantly without affecting the XBP1s axis too much” and the “expression of inflammatory genes induced by TKIs” value (H9C2 cell line) was “blocked upregulation of inflammatory genes (Nfkb1, Il6. and Tnf) by TKIs”.
For Cc1ccc(C(=O)Nc2ccc(CN3CCN(C)CC3)c(C(F)(F)F)c2)cc1C#Cc1cnc2cccnn12 [ponatinib], the “effect on ATP levels” value (Cor.4U hiPSC-CMs [3]; 0.32 to 10 µM, day 1 to day 5) was “dose-dependent and time-dependent reduction in ATP levels”, the “dose-dependent toxicity (ATP fold changes)” value (Cor.4U hiPSC-CMs [3]; day 1, different doses, RNAseq conditions) was “dose-dependent toxicity” and the “effect on beat rate, contraction, base impedance and corrected field potential duration” value (HELP hiPSC-CMs) was “reduced beat rate and corrected field potential duration”. The “basal oxygen consumption rate (OCR)” value (NRCMs [4]) was “trend of inhibiting basal oxygen consumption rate (OCR)”, the “maximal, spare and non-mitochondrial oxygen consumption” value (NRCMs [4]) was “inhibited maximal, spare, and non-mitochondrial oxygen consumption significantly” and the mitochondrial membrane potential (NRCMs [5]) was “trend of decreasing mitochondrial membrane potentials”. For the same compound, the “expression of Dnajb9” value (ER stress genes in NRCMs; 24 h) was “most robust upregulation of Dnajb9 among the 3 TKIs”, the “expression of Herpud1” value (ER stress genes in NRCMs; 24 h) was “most induced” and the “temporal activation of ER stress genes, 72 versus 24 h” value (ER stress genes in NRCMs; afatinib 5.62 µM, sorafenib 3.16 μM, ponatinib 1.78 μM) was “the ATF4 and the ATF6 axes, but not XBP1s, showed time-dependent upregulation”. For the same compound, the “relative activation of the three UPR branches” value (ER stress genes in NRCMs; high-dose treatment, 24 h) was “induced activation of three axes to similar degrees”, the “duration of activated eIF2α phosphorylation” value [6] was 24 h and the Dnajb9 expression (rat left ventricles; day 7, 15 mg/kg) was “significantly increased”. For the same compound, the “gene expression of Anp” value (rat left ventricles; ponatinib 15 mg/kg, sorafenib 50 mg/kg gavage, 3 or 7 days) was “significant increase”, the cytosolic calcium concentration (NRCMs [7]) was “did not cause any significant changes in calcium concentration” and the cell death (NRCMs [1]; 24-h treatment, 10 µM afatinib, 10 µM sorafenib, 5.62 µM ponatinib) was “very little cell death”. For the same compound, the “incidence of arterial occlusion events” value (patients) was 26%, the “level of cardiotoxicity based on literature reports” value (patients; ref Table S1, 2, 4, 26–36) was “high-levels of cardiotoxicity” and the “expression of tRNA aminoacylation gene markers (SARS, GARS)” value (Cor.4U hiPSC-CMs [8]; Cluster 3) was “increased”. The “expression of genes associated with heart contraction” value (Cor.4U hiPSC-CMs [8]; Cluster 4, day 3 or day 5) was “upregulated”, the “expression of genes associated with ER stress (ATF4, NUPR1, DDIT3, TRIB3, CHAC1, SESN2, HERPUD1)” value (Cor.4U hiPSC-CMs [8]; [10]) was “upregulated” and the “expression of genes related to cardiomyopathy and sarcomeric structure (MYH7, SYNPO2L, LDB3, ACTN2, MYLK3)” value (Cor.4U hiPSC-CMs [8]; [10]) was “downregulated”. The death of animals (Sprague-Dawley rats; 15 mg/kg gavage once daily, 3 or 7 days) was “one rat died”, the “heart or body weight” value (Sprague-Dawley rats; day 7, ponatinib 15 mg/kg, sorafenib 50 mg/kg gavage once daily) was “decreased” and the “cardiotoxicity events in FAERS, reporting odds ratios (RORs)” value [9] was “caused the most cardiotoxicity with significant reporting odds ratios (RORs)”.
